Experimental data published in patent US9089565B2, “Compositions and methods for causing neurite outgrowth” (MEDICAL RESEARCH COUNCIL, priority 2009, dated 2015).

B1: BDNF: brain-derived neurotrophic factor, member of the neurotrophin nerve growth factor family, purchased from Merck (protein, UniProt P23560 19-247, looked up)
Neurotrophic factor BDNF …: APMKEANIRGQGGLAYPGVRTHGTLESVNGPKAGSRGLTSLADTFEHVIEELLDEDQKVRPNEENNKDADLYTSRVMLSSQVPLEPPLLFLLEEYKNYLDAANMSMRVRRHSDPARRGELSVCDSISEWVTAADKKTAVDMSGGTVTVLEKVPVSKGQLKQYFYETKCNPMGYTKEGCRGIDKRHWNSQCRTTQSYVRALTMDSKKRIGWRFIRIDTSCVCTLTIKRGR

Tested on: RA-treated SH-SY5Y cells
Experiment: Neurite outgrowth of RA-treated SH-SY5Y cells
Type: cell-based, human
Description: FIG. 1. BDNF promotes neurite outgrowth of RA-treated SH-SY5Y, and induces phosphorylation of NgR1. (A) SH-SY5Y cells were incubated with indicated reagents. Cell images were taken with phase contrast microscopy. (B) Number of cells extending neurite-like structures of more than 40 μm and total cell number were counted from images taken in (A). More than 300 cells were examined in each sample. The proportion of cells extending neurite-like structures of more than 40 μm was indicated as a percentage of total cell number. An average of three experiments is shown. Error bars indicate S. E. between experiments. Data were analysed with student's t test. (C) Whole cell extracts were prepared from RA-treated SH-SY5Y cells after incubation with or without BDNF for 24 hours, and were analysed by SDS-PAGE. Immunoblotting was performed with the indicated antibodies. (D) Whole cell extract prepared from cells treated with both RA and BDNF was incubated with the indicated reagents for 1 hour at 37° C. Immunoblotting was performed with anti-NgR1 antibody. (E) RA-treated SH-SY5Y cells were incubated with BDNF in the presence or absence of one of the following: PKC inhibitor—500 nM Gö6983 or Gö6976; PKA inhibitor—2 μM KT5720 or a PKA inhibitor peptide 14-22; or either 500 nM or 1 μM of a casein kinase inhibitor, for 24 hours. Whole cell extracts prepared from these cells were analysed by SDS-PAGE. Immunoblotting was performed with anti-NgR1 antibody.
FIG. 2. CK2 promotes neurite outgrowth of RA-treated SH-SY5Y cells without BDNF. (A) RA-treated SH-SY5Y cells were incubated with the indicated reagents for 24 hours. Cell images were taken with phase contrast microscopy. (B) Number of cells extending neurite-like structures of more than 40 μm and total cell number were counted from images taken in (A). More than 300 cells were examined in each sample. Calculation was done as FIG. 1B. Result of student's t test between RA alone and RA+CK II+ATP was p=0.0014. (C) Myc-tagged wild type and mutant versions of NgR1 were over-expressed in SH-SY5Y cells. The cells were treated with RA, CK2 and ATP. Over-expressed NgR1-Myc was detected with anti-Myc antibody. (D) SH-SY5Y cells over-expressing 281S/A mutant NgR1-Myc were incubated with RA and NEP1-40. (E) SH-SY5Y cells over-expressing 281S/D mutant NgR1-Myc were treated as (C).
After fixation, beta-tubulin III was detected with anti-beta-tubulin III antibody. B, Wild type or 281S/A mutant NgR1-Myc was over-expressed in SH-SY5Y cells. After 5 days treatment with RA, these cells were incubated with 500 U/ml PKA and 500 nM (74 kBq/ml) ATP. Then, NgR1-Myc was immuno-precipitated and analysed with SDS-PAGE. […] NgR1-Myc was detected with anti-Myc antibody. […]

[1] = RA-treated SH-SY5Y, substance alone, 24 hours

Row | Molecule | neurite outgrowth [1] | neurite outgrowth (cells over-expressing 281S/A mutant NgR1, NEP1-40 for 24 hours)
1 | Nc1ncnc2c1ncn2[C@@H]1O[C@H](COP(=O)(O)OP(=O)(O)OP(=O)(O)O)[C@@H](O)[C@H]1O [ATP] | Neither addition of ATP alone nor CK2 alone to the culture medium induced neurite outgrowth | 
2 | NEP1-40: a competitive inhibitor of Nogo-66 binding to NgR1 (MEDLDQSPLVSSSDSPPRPQPAFKYQFVREPEDEEEEEEE; Nogo-66 residues 1-40; UniProt Q9NQC3 1-40, looked up, fragment) [reference compound] | promoted neurite outgrowth | showed neurite outgrowth
3 | B1 | efficient neurite outgrowth | 
